Results published in US20250282827A1, “LIPIDATED POLYMYXIN ANALOGUES” (priority 2021, published 2025).
Converted amounts (≈) assume the structure as drawn. Where two headings read alike, the source gives them in different places. Positions of bridges follow the written chain, without caps; N, C: chain ends. Non-standard residues stand in square brackets, D forms with d. Residues, ends and D or L forms follow the SMILES beside them. *: point of attachment. Ethyl(2-OBz) = O=C(OCC*)c1ccccc1; Dab = NCC[C@H](N)C(=O)O; X3 = CCCC(C)C(=O)OCC*

Key:
E. coli ATCC 25922 = assay type: cell-based, Escherichia coli; conditions: median of triplicate
Text: (§1) All 81 compounds prepared in Examples 2 and 3 underwent screening against a panel of Gram-negative bacterium to assess their ability to inhibit bacterial growth. […] The median value is presented.

A. baumannii ATCC 19606 = assay type: cell-based, Acinetobacter baumannii; conditions: median of triplicate
Text: as §1

P. aeruginosa ATCC 27853 = assay type: cell-based, Pseudomonas aeruginosa; conditions: median of triplicate
Text: as §1

K. pneumoniae ATCC 33495 = assay type: cell-based, Klebsiella pneumoniae; conditions: median of triplicate
Text: as §1

[1] = tested on: K. pneumoniae ATCC 700603; assay type: cell-based, Klebsiella pneumoniae; conditions: median of triplicate
Text: as §1

[2] = tested on: K. pneumoniae ATCC MS6671; assay type: cell-based, Klebsiella pneumoniae; conditions: median of triplicate
Text: as §1

E. coli ATCC MS8345 = assay type: cell-based, Escherichia coli; conditions: colistin-resistant strain; median of triplicate
Text: as §1
Expansion of the polymyxin macrocycle by substituting […]) offered little advantage in antimicrobial activity but was generally well tolerated although for A. baumanni and P. aeruginosa this was detrimental.

[3] = tested on: kidney organoids derived from human induced pluripotent stem cells; assay: Nephrotoxicity on kidney organoids, renal tubule deterioration by bright field imaging; assay type: cell-based; conditions: scored after 48 h; further: key: 1 = unaffected; 2 = mild deterioration; 3 = severe deterioration; 4 = complete deterioration
Procedure: Selected polymyxin analogues were evaluated for cytotoxicity in physiologically relevant human kidney tissue, using kidney organoids derived from human induced pluripotent stem cells (Soo et al. 2018). Monolipidated analogues 29, 31, 33, containing a propyl, decyl or phenyl lipid, dilapidated compounds, 35, 38, 39, containing a propyl, tert-butyl or phenyl, lipid, respectively and the N-capped, di-lipidated (phenyl) 49 were selected.
The control compound polymyxin B and the seven ClipPA analogues were tested by adding a range of concentrations (based on Gallado-Godoy et al. 2016) to the organoids at day 12 of the protocol, shown previously to correspond to optimal maturity of the organoid tissues.
Toxicity was scored after 48 h for signs of renal tubule deterioration visible by bright field imaging (not shown).

Vero cell line = assay: Cellular toxicity against Vero cell line; assay type: cell-based; conditions: Vero cell line; ± standard error
Procedure: (§2) FIG. 6 is a graph showing cell survival as a function of the indicated compound concentration. Data are representative of triplicate experiments.
(§3) To evaluate if the ClipPA modifications introduced any new toxicity, inhibitory concentrations against Vero and HaCaT cell lines were determined. […] The standard error for each measurement is shown.

HaCaT cell line = assay: Cellular toxicity against HaCaT cell line; assay type: cell-based; conditions: HaCaT cell line; ± standard error
Procedure: as §2, §3

[4] = tested on: colistin-resistant E. coli; assay type: cell-based, Escherichia coli
Text: (§4) Given the promising antimicrobial activity and low toxicity associated with compounds 29, 35 and to a lesser extent 38, these compounds were progressed to a further round of phenotypic antimicrobial susceptibility testing using a panel of clinically relevant multidrug resistant Gram-negative pathogens. This panel included isolates phenotypically characterised as carbapenem-resistant Enterobacteriacea (CRE), extended spectrum β-lactamase (ESBL) producing Enterobacteriacea, colistin-resistant E. coli, carbapenem-resistant Acinetobacter baumannii (CRAB) or carbapenem-resistant Pseudomonas aeruginosa (CRPA). These isolates were chosen because each was resistant to multiple different families of clinically used antibiotics making treatment options limited and importantly, each of these pathogen types are recognised as “Priority 1: CRITICAL” on the World Health Organization (WHO) priority pathogen list for R&D of new antibiotics. Antimicrobial activity against any of these pathogens would therefore be of clinical importance. […] However, we note that many of the compounds tested in Example 4 did show good activity against colistin-resistant E. coli.

[5] = tested on: carbapenem-resistant Acinetobacter baumannii (CRAB); assay type: cell-based; conditions: A. baumannii, CRAB, OXA-23
Text: as §4

[6] = tested on: carbapenem-resistant Enterobacteriacea (CRE); assay type: cell-based
Text: as §4

[7] = tested on: carbapenem-resistant Pseudomonas aeruginosa (CRPA); assay type: cell-based
Text: as §4

[8] = tested on: extended spectrum β-lactamase (ESBL) producing Enterobacteriacea; assay type: cell-based
Text: as §4

Molecule	MIC E. coli ATCC 25922 (E. coli ATCC 25922)	MIC A. baumannii ATCC 19606 (A. baumannii ATCC 19606)	MIC P. aeruginosa ATCC 27853 (P. aeruginosa ATCC 27853)	MIC K. pneumoniae ATCC 33495 (K. pneumoniae ATCC 33495)	MIC K. pneumoniae ATCC 700603 [1]	MIC K. pneumoniae ATCC MS6671 [2]	MIC E. coli ATCC MS8345 (E. coli ATCC MS8345)	Score (nephrotoxicity on kidney organoids) ([3]; 100 μM)	Score (nephrotoxicity on kidney organoids) ([3]; 300 μM)	Score (nephrotoxicity on kidney organoids) ([3]; 1 mM)	IC50 Vero (Vero cell line)	IC50 HaCaT (HaCaT cell line)	further results
CC(=O)N[C@@H](CSCCOC(=O)c1ccccc1)C(=O)N[C@@H](CCN)C(=O)N[C@H](C(=O)N[C@@H](CCN)C(=O)N[C@H]1CCNC(=O)[C@H]([C@@H](C)O)NC(=O)[C@H](CCN)NC(=O)[C@H](CCN)NC(=O)[C@H](CSCCOC(=O)c2ccccc2)NC(=O)[C@@H](Cc2ccccc2)NC(=O)[C@H](CCN)NC1=O)[C@@H](C)O [Compound 49] (Ac-C(Ethyl(2-OBz))[Dab]T[Dab][Dab][Dab][dF]C(Ethyl(2-OBz))[Dab][Dab]T; lactam 5-C)	0.5 µg/mL (≈ 0.335 µM)	1 to 2 µg/mL	1 µg/mL (≈ 0.669 µM)	0.5 µg/mL (≈ 0.335 µM)	0.5 µg/mL (≈ 0.335 µM)	>32 µg/mL	16 µg/mL (≈ 10.7 µM)	3	3	4			
CCCC(C)C(=O)OCCSC[C@@H](N)C(=O)N[C@H](C(=O)N[C@@H](CCN)C(=O)N[C@H]1CCNC(=O)[C@H]([C@@H](C)O)NC(=O)[C@H](CCN)NC(=O)[C@H](CCN)NC(=O)[C@H](CC(C)C)NC(=O)[C@@H](Cc2ccccc2)NC(=O)[C@H](CCN)NC1=O)[C@@H](C)O (stereo partly drawn) [Compound 94] (H-[dC](X3)T[Dab][Dab][Dab][dF]L[Dab][Dab]T; lactam 4-C)	1 µg/mL (≈ 0.827 µM)	4 µg/mL (≈ 3.31 µM)	2 µg/mL (≈ 1.65 µM)	1 µg/mL (≈ 0.827 µM)	2 µg/mL (≈ 1.65 µM)	>32 µg/mL	16 µg/mL (≈ 13.2 µM)	1	2	3			
Colistin [reference compound]											949.7 ± 75.35 µg/mL	2578 ± 11.41 µg/mL	
Polymyxin B [PMB, reference compound]	0.25 µg/mL	0.5 µg/mL	0.25 µg/mL	0.5 µg/mL	0.25 µg/mL	>32 µg/mL	4 µg/mL	2	3	4	939.0 ± 63.32 µg/mL	1998 ± 27.74 µg/mL	MIC ([4]; E. coli, CR (colistin-resistant), MCR-1): 8 µg/mL; susceptibility of colistin-resistant E. coli in words ([4]; in words): resistant; MIC [5]: 1 µg/mL; MIC ([6]; E. cloacae, IMP-4): 1 µg/mL; MIC ([6]; E. coli, NDM-1): 1 µg/mL; MIC ([6]; K. pneumoniae, KPC-2): 2 µg/mL; MIC ([6]; K. pneumoniae, NDM-5): 2 µg/mL; MIC ([7]; P. aeruginosa, CRPA, VIM-2): 8 µg/mL; susceptibility of CRPA in words ([7]; in words): resistant; MIC ([8]; E. coli, CTX-M-15): 1 µg/mL; MIC ([8]; S. enterica, CTX-M-55): 2 µg/mL
